Experiments:
eosinophil membranes = settings: read-out: IC50, inhibits the binding of radiolabeled LTB4 to eosinophil membranes; cited from earlier work
LNCaP cells = experiment: cell counting with trypan blue; format: cell-based, human; settings: 1 μM and 5 μM, serum free RPMI 1640
Protocol: The effect of LY255283 was observed by counting of cell number. The cells were grown in 6-well cluster dishes to 70% confluence with 10% FBS-supplemented medium. At day 0, the medium was replaced with serum free RPMI 1640 and cells were stimulated with DMSO or 1 μM and 5 μM LY255283. The cells were harvested at various intervals. Cells were washed with PBS and collected by brief trypsinization. Total cell number was determined by counting each sample in duplicate with a hemocytometer using trypan blue dye. The cells treated with LY255283 in serum free RPM11640 were harvested at various intervals. […] In contrast, PWR-1 E cells which expressed few level of BLT2 were not affected by LY255283.

PWR-1E cells = experiment: MTT assay, cell viability; format: cell-based; settings: increasing concentration, 48 hr, serum free RPMI 1640
Protocol: The effect of LY255283, BLT2 antagonist, on cell viability was examined by MTT assay. PWR-1E cells were seeded at a density of 1.0×10^4 cells/well and LNCaP cells were seeded at a density of 1.5×10^4 cells/well in 96-well culture dishes. After 36 hr, the medium was replaced with serum free RPMI 1640 and cells were stimulated with DMSO or LY255283 of increasing concentration. MTT (1 mg/mu) was added at 48 hr after LY255283 treatment and after 4 hr of further incubation the medium was replaced with DMSO. Then cells were incubated at room temperature for 10 min. The spectrophotometric absorbance of the samples was determined by using Ultra Multifunctional Microplate Reader at 540 nm. LNCaP cells and PWR-1E cells were stimulated with LY255283 of various concentration in serum free RPM11640.

CCc1cc(C(C)=O)c(O)cc1OCCCCCC(C)(C)c1nnn[nH]1 [LY255283, 1-[5-ethyl-2-hydroxy-4-[[6-methyl-6-(1H-tetrazol-5-yl)heptyl]oxy]phenyl]-ethanone]
IC50 (eosinophil membranes): 260 nM
number of LNCaP cells (LNCaP cells): significantly reduced
PWR-1E cell viability (MTT) (PWR-1E cells): no effect
